Test results published in US12053522B2, “Pro-inflammatory and anti-cancer functions of toll-like receptor 4 antagonists” (Children's Medical Center Corporation, priority 2015, dated 2024).

Key:
[1] = target: T1, catalytic mutant caspase-11 full length (C254A) (Mus musculus, UniProt P70343, C254A); test: SPR analysis of lipid binding to immobilized full length caspase-11 (C254A)
T1 construct: recombinant catalytic mutant caspase-11 full length (C254A); His; made in house; host or cells: SF-21 insect cells (baculovirus)
T1 sequence (P70343 81-373 C254A): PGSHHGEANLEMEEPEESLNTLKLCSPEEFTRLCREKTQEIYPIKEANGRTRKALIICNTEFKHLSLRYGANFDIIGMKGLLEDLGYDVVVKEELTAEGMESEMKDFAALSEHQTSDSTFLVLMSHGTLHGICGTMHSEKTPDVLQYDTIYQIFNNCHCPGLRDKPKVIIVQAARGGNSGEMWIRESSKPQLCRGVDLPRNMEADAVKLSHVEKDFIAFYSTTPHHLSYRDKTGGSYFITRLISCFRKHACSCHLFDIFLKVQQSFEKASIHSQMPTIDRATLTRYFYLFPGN
Protocol: For studies to measure the direct binding of oxPAPC to caspase-11, proteins and SPR analysis was performed as described (Shi, J., et al., (2014b) Nature). Briefly, the recombinant catalytic mutant caspase-11 full length (C254A) and caspase-11 ΔN59 (C254A) were purified from P3 baculovirus infected SF-21 insect cells that were cultured in Sf900™ II SFM for 72 h at 28° C. Cells were lysed in lysis buffer containing 1% Triton X-100, 50 mM Tris-HCl (pH 7.6), 300 mM NaCl, 50 mM imidazole and 5 mM 2-mercaptoethanol. Ni-NTA beads (Qiagen) were used to purify His-tagged proteins from lysates. Proteins were released from the beads with elution buffer containing 50 mM Tris-HCl (pH 7.6), 250 mM imidazole and 300 mM NaCl. Imidazole was removed by dialysis. The proteins were further purified with HiTrap Q column and Superdex G200 column (GE Healthcare Life Sciences) to reach high homogeneity.
For surface plasmon resonance (SPR) analysis, BIAcore T100 SPR instrument (GE Healthcare) was used to measure the ligand binding kinetics. The assays were performed in a buffer containing 150 mM NaCl, 3 mM EDTA, 50 mM HEPES (pH 7.5) and 0.005% Tween-20 at 25° C. […] The KD values were calculated by fitting result curves (subtracted the control flow cell value) to a 1:1 Langmuir binding model with the BIAcore T100 evaluation software.

[2] = test system: bone marrow derived DCs; test: IL-1β release from DCs (ELISA); format: cell-based, mouse; settings: for IL-1β release: LPS-primed DCs
Protocol: NLRP3 KO and ASC KO mice were kindly provided by Dr. T. Horng, Harvard School of Public Health. Caspase-11 KO mice were kindly provided by Dr. Junying Yuan, Harvard Medical School. Caspase-1 single KO mice were kindly provided by Thirumala-Devi Kanneganti (St. Judes). DCs were differentiated from bone marrow in IMDM (Gibco), 10% B16-GM-CSF derived supernatant, 2 μM 2-mercaptoethanol and 10% FBS and used after 6 day of culture. […] MO were differentiated from bone marrow in DMEM (Gibco), 30% L929 supernatant, and 10% FBS. Immortal MΦs were cultured in DMEM supplemented with 10% L929 supernatant and 10% FBS. […] For experiments using pan-caspase inhibitor, cells were treated with zVADfmk (20 μM) 30 min before inflammasome activation stimuli addition. Cycloheximide (50 ng/ml) was added at the time of stimuli administration. Transfection with DOTAP was performed following the manufacturer instructions. […] 30 min later, the DOTAP/LPS or DOTAP/oxPAPC complex were added to the culture.
(§1) RNA was isolated from cell cultures using Qiashedder (Qiagen) and GeneJET RNA Purification Kit (Life Technologies). Purified RNA was analyzed for gene expression on a CFX384 real time cycler (Bio-rad) using TaqMan RNA-to-CT 1-Step Kit (Applied Biosystems) with probes purchased from Life Technologies specific for viperin (Mm00491265_m1), IFNb1 (Mm00439552_s1), IL6 (Mm00446190_m1), caspase-1 (Mm00438023_m1), caspase-11 (Mm00432307_m1), Nlrp3 (Mm00840904_m1), Asc (Mm00445747_g1), TBP (Mm00446971_m1) or GAPDH (Mm99999915_g1). ELISA for IL-1β, IL-2, IL-17, IL-18, TNFα and IFNγ were performed using Mouse Ready-SET-Go ELISA kits (eBioscience). To measure secreted cytokines, supernatant were collected, clarified by centrifugation and stored at −20° C. Cell associated cytokines were measured as follows: 96-well plates were centrifuged and supernatant was discarded. 250 μl of PBS were added to each well. Cells were frozen and thawed two times at −80° C. and then stored at −20° C. for further analysis.

[3] = test system: DCs; test: TNFα secretion from DCs (ELISA); format: cell-based, mouse; settings: LPS-primed DCs
Description: C57BL/6J (Jax 000664), C57BL/6NJ (Jax 005304), CD14 KO (Jax 003726), caspase-1/-11 dKO mice (Jax 016621), TLR4-mutant (C3H/HeJ, Jax 000659), and wild-type control for TLR4-mutant (C3H/HeSNJ, Jax 000661) were purchased from Jackson Labs. NLRP3 KO and ASC KO mice were kindly provided by Dr. T. Horng, Harvard School of Public Health. Caspase-11 KO mice were kindly provided by Dr. Junying Yuan, Harvard Medical School. Caspase-1 single KO mice were kindly provided by Thirumala-Devi Kanneganti (St. Judes). DCs were differentiated from bone marrow in IMDM (Gibco), 10% B16-GM-CSF derived supernatant, 2 μM 2-mercaptoethanol and 10% FBS and used after 6 day of culture. DC purity was assessed by flow cytometry and was usually higher than 90%. MO were differentiated from bone marrow in DMEM (Gibco), 30% L929 supernatant, and 10% FBS. Immortal MΦs were cultured in DMEM supplemented with 10% L929 supernatant and 10% FBS. Splenic DCs were purified as described previously (Zanoni et al., 2012). Prior to stimulations, cultured cells were washed and re-plated in DMEM supplemented with 10% FBS at a concentration of 1×10^6 cells/ml in a final volume of 100 μl. For experiments using pan-caspase inhibitor, cells were treated with zVADfmk (20 μM) 30 min before inflammasome activation stimuli addition. […]
as §1, with “To measure secreted cytokines, supernatant were collected, clarified by centrifugation and stored at −20° C.” left out, “250 μl of PBS were added to each well. Cells were frozen and thawed two times at −80° C. and then stored at −20° C. for further analysis.” left out

[4] = test system: inflammasome in DCs; test: Inflammasome activation (FIGS. 6-42); format: cell-based
[5] = target: T2, CD14 (Mus musculus, UniProt P10810); test: CD14 endocytosis (surface staining, flow cytometry); format: cell-based; settings: protein synthesis blocked with cycloheximide
T2 construct: endogenous in cells; host or cells: iMΦ, primary bone marrow derived MΦ and DCs
T2 sequence (P10810 16-336 limits assumed): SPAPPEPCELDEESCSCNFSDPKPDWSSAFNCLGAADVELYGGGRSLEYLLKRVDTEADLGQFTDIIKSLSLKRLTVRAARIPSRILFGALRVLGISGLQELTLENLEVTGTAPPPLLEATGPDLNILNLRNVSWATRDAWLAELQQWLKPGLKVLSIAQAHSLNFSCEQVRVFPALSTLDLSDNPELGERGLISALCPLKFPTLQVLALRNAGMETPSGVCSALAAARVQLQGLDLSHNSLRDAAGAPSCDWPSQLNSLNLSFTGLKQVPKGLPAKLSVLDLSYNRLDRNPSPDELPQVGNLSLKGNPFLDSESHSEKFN
Protocol: (§2) primary bone marrow derived MΦs and DCs or splenic DCs (0.5×10^6) of the indicated genotypes were treated with E. coli LPS, oxPAPC or chemical inhibitors for the indicated time points at 37° C. Cells were then washed with 1 mL cold PBS and stained for appropriate antibodies on ice for 20 to 30 minutes. 2% mouse serum or rat serum were used as the blocking reagent to reduce non-specific binding of the antibodies. The stained cells were then washed with 1 mL cold PBS and resuspended in 200 μL PBS. Staining of the surface receptors was analyzed with BD FACSCanto II. The mean fluorescence intensity (MFI) of CD14, TLR4 from unstimulated or stimulated cells was recorded. The percentage of surface receptor staining at indicated time points, which is the ratio of the MFI values measured from the stimulated cells to those measured from the unstimulated cells, was plotted to reflect the efficiency of receptor endocytosis. For measuring the extent of TLR4/MD-2 dimerization, the percentage of TLR4/MD2 dimer was calculated by 100%−the percentage of TLR4/MD-2 monomer. The percentage of the TLR4/MD-2 monomer was determined by the ratio of the MFI values (obtained from MTS510 antibody staining) of the stimulated cells to those of the unstimulated cells were indicated. Cells were stained with anti-MHC class II or anti-CD40 antibodies.

[6] = target: T3, TLR4 (Mus musculus, UniProt Q9JHF9+Q9QUK6); test: TLR4 endocytosis (surface staining, flow cytometry); format: cell-based; settings: cycloheximide treatment
T3 construct: endogenous in cells; host or cells: iMΦ, primary bone marrow derived MΦ and DCs
T3 sequence (Q9QUK6 26-835): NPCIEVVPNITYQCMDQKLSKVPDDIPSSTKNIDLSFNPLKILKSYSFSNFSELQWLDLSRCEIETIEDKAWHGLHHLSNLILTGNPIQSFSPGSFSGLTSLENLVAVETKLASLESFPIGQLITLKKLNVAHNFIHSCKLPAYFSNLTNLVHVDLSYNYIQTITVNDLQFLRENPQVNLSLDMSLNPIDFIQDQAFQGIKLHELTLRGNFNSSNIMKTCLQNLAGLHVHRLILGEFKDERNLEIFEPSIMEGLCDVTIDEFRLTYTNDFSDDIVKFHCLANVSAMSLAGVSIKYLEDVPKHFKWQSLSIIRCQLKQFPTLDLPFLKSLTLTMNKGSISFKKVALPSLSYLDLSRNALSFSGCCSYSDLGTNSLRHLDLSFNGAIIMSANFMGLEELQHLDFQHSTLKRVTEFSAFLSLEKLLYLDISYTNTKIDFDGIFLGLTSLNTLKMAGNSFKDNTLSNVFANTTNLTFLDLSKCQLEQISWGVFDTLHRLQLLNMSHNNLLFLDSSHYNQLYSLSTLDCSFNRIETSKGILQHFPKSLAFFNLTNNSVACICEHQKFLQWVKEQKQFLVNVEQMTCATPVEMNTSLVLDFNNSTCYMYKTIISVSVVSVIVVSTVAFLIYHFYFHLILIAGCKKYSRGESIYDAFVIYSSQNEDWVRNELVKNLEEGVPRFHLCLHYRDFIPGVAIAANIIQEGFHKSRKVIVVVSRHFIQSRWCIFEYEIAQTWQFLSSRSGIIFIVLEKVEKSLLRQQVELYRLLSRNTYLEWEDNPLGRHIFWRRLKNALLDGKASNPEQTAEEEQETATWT
T3 sequence (Q9JHF9 19-160): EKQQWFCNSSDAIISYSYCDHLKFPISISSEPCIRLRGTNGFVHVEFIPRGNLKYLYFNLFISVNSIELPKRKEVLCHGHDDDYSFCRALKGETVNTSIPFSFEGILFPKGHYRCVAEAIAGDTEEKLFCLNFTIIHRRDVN
Protocol: as §2

For CCCCCCCCCCCCCC(=O)OC[C@H](COP(=O)([O-])OCC[N+](C)(C)C)OC(=O)CCCCCCCCCCCCC [DMPC, 1,2-dimyristoyl-sn-glycero-3-phosphocholine], which “binding to immobilized caspase-11(C254A) on SPR” value [1] is on record?
Its value is “did not bind detectably”.

And the IL-1β release [2]?
The IL-1β release was “unable to elicit IL-1β release”.

And the TNFα release [3]?
Its TNFα release is “not affected”.

Which results are given for CCCCCCCCCCCCCCCC(=O)OC[C@H](COP(=O)([O-])OCC[N+](C)(C)C)OC(=O)CCCC(=O)/C=C/C(=O)O [KOdiA-PC, 1-(Palmitoyl)-2-(5-keto-6-octene-dioyl) phosphatidylcholine]?
IL-1β release [2]: able to elicit IL-1β secretion; TNFα release [3]: not affected; inflammasome activation [4]: activated the inflammasome in DCs

How did the “IL-1β release from DCs” value ([2]; chloroquine pre-treatment, LPS-primed, oxPAPC-treated) turn out when CCN(CC)CCCC(C)Nc1ccnc2cc(Cl)ccc12 (stereo not drawn) [chloroquine] was run?
The value was “promoted slightly more release of IL-1β”.

Which results are given for C[C@@H]1C[C@@H]([C@H](O)CC2CC(=O)NC(=O)C2)C(=O)[C@@H](C)C1 [cycloheximide]?
extent of oxPAPC- or LPS-induced CD14 endocytosis [5]: enhanced; TLR4 internalization or dimerization [6]: did not affect
